Drawing on PubChem BioAssay AID328 (DTP/NCI, 2004), this text covers T/C for 16 compounds.

Molecules are shown by their SMILES. Values joined by “and” are separate entries in the source; they are usually repeats but may differ in a detail not shown here. Equal values may be shown once. Toxic doses and inconclusive results are not listed.

This assay has as its system BDF1 mice, P388 leukemia ip, median survival T/C. As to the kind of experiment: NCI In Vivo Anticancer Drug Screen. Data for tumor model P388 Leukemia (intraperitoneal) in B6D2F1 (BDF1) mice. To be noted: endpoint: median survival time, higher = longer survival. Here is the method:
The antitumor activity of compounds was measured in mice bearing transplantable tumors. Survival or tumor size were measured and the results are expressed as the measurement made in the treated group (T) divided by the measurement made in the vehicle treated control group (C). The tumor model used in this assay is P388 Leukemia (intraperitoneal) in B6D2F1 (BDF1) mice

[1] abbreviates: dose: 100.0 mg/kg/injection, schedule: Q01DX001 (ip), vehicle: saline with Tween-80.
Setting [2] is: dose: 400.0 mg/kg/injection, schedule: Q01DX001 (ip), vehicle: saline with Tween-80.
The mark [3] stands for this setting: dose: 100.0 mg/kg/injection, schedule: Q01DX009 (ip), vehicle: saline with Tween-80.
Where [4] appears, read: dose: 200.0 mg/kg/injection, schedule: Q01DX009 (ip), vehicle: saline with Tween-80.
The mark [5] stands for this setting: dose: 50.0 mg/kg/injection, schedule: Q01DX009 (ip), vehicle: saline.
The mark [6] stands for this setting: dose: 100.0 mg/kg/injection, schedule: Q01DX009 (ip), vehicle: saline.
Setting [7] is: dose: 50.0 mg/kg/injection, schedule: Q01DX009 (ip), vehicle: saline with Tween-80.

Take `Cc1ccc(S(=O)(=O)N2CC(O)CC2C(=O)O)cc1` (configuration not stated): the T/C reads like this: under setting [1], 118 % of control; (dose: 200.0 mg/kg/injection, schedule: Q01DX001 (ip), vehicle: saline with Tween-80) 100 % of control; under setting [2], 113 % of control.
For the compound `CNC(=O)NNc1ccccc1`, the T/C reads like this: (dose: 200.0 mg/kg/injection, schedule: Q04DX003 (ip), vehicle: Klucel (hydroxypropylcellulose) (HPC)) 115 % of control; (dose: 400.0 mg/kg/injection, schedule: Q04DX003 (ip), vehicle: Klucel (hydroxypropylcellulose) (HPC)) 115 % of control.
On to `CC(=O)[C@@]1(O)CC[C@H]2[C@@H]3C[C@H](C)C4=CC(=O)C=C[C@]4(C)[C@@]3(F)[C@@H](O)C[C@@]21C`, for which the T/C reads like this: (dose: 5.0 mg/kg/injection, schedule: Q01DX010 (sc), vehicle: steriod suspending solution) 109 % of control; (dose: 10.0 mg/kg/injection, schedule: Q01DX010 (sc), vehicle: steriod suspending solution) 109 % of control; (dose: 20.0 mg/kg/injection, schedule: Q01DX010 (sc), vehicle: steriod suspending solution) 118 % of control; (dose: 80.0 mg/kg/injection, schedule: Q01DX010 (sc), vehicle: steriod suspending solution) 118 % of control; (dose: 320.0 mg/kg/injection, schedule: Q01DX010 (sc), vehicle: steriod suspending solution) 95 % of control and 112 % of control; (dose: 640.0 mg/kg/injection, schedule: Q01DX010 (sc), vehicle: steriod suspending solution) 112 % of control.
On to `OCC1OC(n2cnc3c(SSc4ncnc5c4ncn5C4OC(CO)C(O)C4O)ncnc32)C(O)C1O` (configuration not stated), for which the T/C by setting is: (dose: 118.0 mg/kg/injection, schedule: Q01DX010 (ip), vehicle: saline) 104 % of control; (dose: 178.0 mg/kg/injection, schedule: Q01DX010 (ip), vehicle: saline) 104 % of control.
With `CC1(c2ccc(-c3ccccc3)cc2)NC(=O)NC1=O` (configuration not stated), the T/C by setting is: under setting [3], 91 % of control; under setting [4], 95 % of control; (dose: 400.0 mg/kg/injection, schedule: Q01DX009 (ip), vehicle: saline with Tween-80) 88 % of control.
As to `Nc1cc(Cl)ccc1O`, the T/C by setting is: under setting [5], 114 % of control; under setting [6], 97 % of control; (dose: 200.0 mg/kg/injection, schedule: Q01DX009 (ip), vehicle: saline) 116 % of control.
Take `C=C(C)C(=O)NCC(=O)Oc1ccc([N+](=O)[O-])cc1`: the T/C was 86 % of control under setting [7], 102 % of control under setting [3] and 93 % of control under setting [4].
For `C=C[P+](c1ccccc1)(c1ccccc1)c1ccccc1`, the T/C (dose: 1.0 mg/kg/injection, schedule: Q01DX009 (ip), vehicle: saline) was 110 % of control; the T/C (dose: 1.5 mg/kg/injection, schedule: Q01DX010 (ip), vehicle: saline) was 95 % of control; the T/C (dose: 2.5 mg/kg/injection, schedule: Q01DX009 (ip), vehicle: saline) was 150 % of control; the T/C (dose: 3.0 mg/kg/injection, schedule: Q01DX010 (ip), vehicle: saline) is 116 % of control; the T/C (dose: 3.3 mg/kg/injection, schedule: Q04DX003 (ip), vehicle: saline) was 120 % of control; the T/C (dose: 3.7 mg/kg/injection, schedule: Q01DX009 (ip), vehicle: saline) was 89 % of control. Besides, the T/C (dose: 5.0 mg/kg/injection, schedule: Q01DX009 (ip), vehicle: saline) was 95 % of control.
As to `CCOC(=O)c1ccnc2ccc(O)cc12`, the T/C was 91 % of control (dose: 100.0 mg/kg/injection, schedule: Q04DX003 (ip), vehicle: saline with Tween-80); 108 % of control (dose: 200.0 mg/kg/injection, schedule: Q04DX003 (ip), vehicle: saline with Tween-80); 95 % of control (dose: 400.0 mg/kg/injection, schedule: Q04DX003 (ip), vehicle: saline with Tween-80).
With `CSc1cc(C(N)=O)c2c(N)nc(SC)nc2n1`, the T/C is, setting by setting: (dose: 25.0 mg/kg/injection, schedule: Q01DX001 (ip), vehicle: saline with Tween-80) 111 % of control; (dose: 50.0 mg/kg/injection, schedule: Q01DX001 (ip), vehicle: saline with Tween-80) 109 % of control; under setting [1], 100 % of control and 111 % of control; under setting [2], 100 % of control.
For the compound `O=c1ccc2ccccc2o1`, the T/C is, setting by setting: (dose: 50.0 mg/kg/injection, schedule: Q01DX010 (ip), vehicle: saline) 100 % of control; (dose: 100.0 mg/kg/injection, schedule: Q01DX010 (ip), vehicle: saline) 90 % of control; (dose: 200.0 mg/kg/injection, schedule: Q01DX010 (ip), vehicle: saline) 90 % of control; (dose: 400.0 mg/kg/injection, schedule: Q01DX010 (ip), vehicle: saline) 95 % of control.
As to `CCCCCCC(=O)/C=C/c1c(Cl)cccc1Cl`, the T/C is, setting by setting: (dose: 25.0 mg/kg/injection, schedule: Q01DX009 (ip), vehicle: saline with Tween-80) 91 % of control; under setting [7], 112 % of control; under setting [3], 103 % of control and 108 % of control; under setting [4], 116 % of control.
In the case of `C[N+](C)(CCCCOCCCC[N+](C)(C)Cc1ccc([N+](=O)[O-])cc1)Cc1ccc([N+](=O)[O-])cc1`, the T/C (dose: 0.19 mg/kg/injection, schedule: Q01DX009 (ip), vehicle: saline with Tween-80) was 100 % of control; the T/C (dose: 0.37 mg/kg/injection, schedule: Q01DX009 (ip), vehicle: saline with Tween-80) was 104 % of control; the T/C (dose: 0.75 mg/kg/injection, schedule: Q01DX009 (ip), vehicle: saline with Tween-80) is 108 % of control; the T/C (dose: 1.5 mg/kg/injection, schedule: Q01DX009 (ip), vehicle: saline with Tween-80) was 96 % of control; the T/C (dose: 1.5 mg/kg/injection, schedule: Q04DX003 (ip), vehicle: saline with Tween-80) is 109 % of control; the T/C (dose: 3.0 mg/kg/injection, schedule: Q04DX003 (ip), vehicle: saline with Tween-80) is 104 % of control.
As for `NC(Cc1ccc(OC2CCCC2)c(N(CCCl)CCCl)c1)C(=O)O` (configuration not stated), the T/C (dose: 0.5 mg/kg/injection, schedule: Q04DX003 (ip), vehicle: Klucel (hydroxypropylcellulose) (HPC)) is 104 % of control; the T/C (dose: 1.0 mg/kg/injection, schedule: Q04DX003 (ip), vehicle: Klucel (hydroxypropylcellulose) (HPC)) was 118 % of control; the T/C (dose: 2.5 mg/kg/injection, schedule: Q04DX003 (ip), vehicle: saline) was 195 % of control; the T/C (dose: 5.0 mg/kg/injection, schedule: Q04DX003 (ip), vehicle: saline) is 227 % of control; the T/C (dose: 7.5 mg/kg/injection, schedule: Q04DX003 (ip), vehicle: saline) was 163 % of control; the T/C (dose: 15.0 mg/kg/injection, schedule: Q04DX003 (ip), vehicle: other) is 179 % of control. The T/C by setting is: (dose: 15.0 mg/kg/injection, schedule: Q04DX003 (ip), vehicle: saline) 154 % of control; (dose: 20.0 mg/kg/injection, schedule: Q04DX003 (ip), vehicle: other) 87 % of control; (dose: 30.0 mg/kg/injection, schedule: Q04DX003 (ip), vehicle: saline) 168 % of control.
Consider `S=P(N1CCCC1)(N1CC1)N1CC1`, for which the T/C by setting is: (dose: 5.0 mg/kg/injection, schedule: Q01DX009 (ip), vehicle: saline with Tween-80) 158 % of control; (dose: 10.0 mg/kg/injection, schedule: Q01DX009 (ip), vehicle: saline with Tween-80) 104 % of control.
On to `CCC(/C=C/C(C)C1CCC2C3CC=C4CC(O)CCC4(C)C3CCC12C)C(C)C` (configuration not stated) (tested in a mixture with another compound), for which the T/C (dose: 25.0 mg/kg/injection, schedule: Q01DX009 (ip), vehicle: saline) was 104 % of control; the T/C (dose: 25.0 mg/kg/injection, schedule: Q04DX003 (ip), vehicle: alcohol) is 109 % of control; the T/C under setting [5] is 95 % of control; the T/C (dose: 50.0 mg/kg/injection, schedule: Q04DX003 (ip), vehicle: alcohol) was 95 % of control; the T/C under setting [6] was 100 % of control; the T/C (dose: 100.0 mg/kg/injection, schedule: Q04DX003 (ip), vehicle: alcohol) is 100 % of control.
